pKi: −log10 of the molar value.
Assays:
Mus musculus [1] = test: In vivo biodistribution in NMRI (Naval Medical Research Institute) mice liver at the dose of 0.15-0.2 nmol at 40 min; assay type: ADME, organism-based
Mus musculus [2] = test: In vivo biodistribution in NMRI (Naval Medical Research Institute) mice brain at the dose of 0.15-0.2 nmol at 20 min; assay type: ADME, organism-based
Mus musculus [3] = test: In vivo biodistribution in NMRI (Naval Medical Research Institute) mice liver at the dose of 0.15-0.2 nmol at 20 min; assay type: ADME, organism-based
Mus musculus [4] = test: In vivo biodistribution in NMRI (Naval Medical Research Institute) mice kidney at the dose of 0.15-0.2 nmol at 60 min; assay type: ADME, organism-based; details: 1 h
Mus musculus [5] = test: In vivo biodistribution in NMRI (Naval Medical Research Institute) mice bone at the dose of 0.15-0.2 nmol at 10 min; assay type: ADME, organism-based, Bone element
Mus musculus [6] = test: In vivo biodistribution in NMRI (Naval Medical Research Institute) mice liver at the dose of 0.15-0.2 nmol at 10 min; assay type: ADME, organism-based
Mus musculus [7] = test: In vivo biodistribution in NMRI (Naval Medical Research Institute) mice pancreas at the dose of 0.15-0.2 nmol at 2 min; assay type: ADME, organism-based
Mus musculus [8] = test: In vivo biodistribution in NMRI (Naval Medical Research Institute) mice liver at the dose of 0.15-0.2 nmol at 60 min; assay type: ADME, organism-based; details: 1 h
Mus musculus [9] = test: In vivo biodistribution in NMRI (Naval Medical Research Institute) mice kidney at the dose of 0.15-0.2 nmol at 5 min; assay type: ADME, organism-based
Mus musculus [10] = test: In vivo biodistribution in NMRI (Naval Medical Research Institute) mice liver at the dose of 0.15-0.2 nmol at 2 min; assay type: ADME, organism-based
Mus musculus [11] = test: In vivo biodistribution in NMRI (Naval Medical Research Institute) mice kidney at the dose of 0.15-0.2 nmol at 20 min; assay type: ADME, organism-based
Mus musculus [12] = test: In vivo biodistribution in NMRI (Naval Medical Research Institute) mice lung at the dose of 0.15-0.2 nmol at 20 min; assay type: ADME, organism-based
Mus musculus [13] = test: In vivo biodistribution in NMRI (Naval Medical Research Institute) mice spleen at the dose of 0.15-0.2 nmol at 40 min; assay type: ADME, organism-based
Mus musculus [14] = test: In vivo biodistribution in NMRI (Naval Medical Research Institute) mice brain at the dose of 0.15-0.2 nmol at 60 min; assay type: ADME, organism-based; details: 1 h
Mus musculus [15] = test: In vivo biodistribution in NMRI (Naval Medical Research Institute) mice spleen at the dose of 0.15-0.2 nmol at 60 min; assay type: ADME, organism-based; details: 1 h
Mus musculus [16] = test: In vivo biodistribution in NMRI (Naval Medical Research Institute) mice bone at the dose of 0.15-0.2 nmol at 5 min; assay type: ADME, organism-based, Bone element
Adenosine receptor A2a = Adenosine receptor A2a (Rattus norvegicus, UniProt P30543); test: In vitro binding affinity at Adenosine A2A receptor of rat cortex
Mus musculus [17] = test: In vivo biodistribution in NMRI (Naval Medical Research Institute) mice bone at the dose of 0.15-0.2 nmol at 40 min; assay type: ADME, organism-based, Bone element
Mus musculus [18] = test: In vivo biodistribution in NMRI (Naval Medical Research Institute) mice intestine at the dose of 0.15-0.2 nmol at 2 min; assay type: ADME, organism-based
Mus musculus [19] = test: In vivo biodistribution in NMRI (Naval Medical Research Institute) mice bone at the dose of 0.15-0.2 nmol at 2 min; assay type: ADME, organism-based, Bone element
Mus musculus [20] = test: In vivo biodistribution in NMRI (Naval Medical Research Institute) mice intestine at the dose of 0.15-0.2 nmol at 40 min; assay type: ADME, organism-based
Adenosine receptor A1 = target: T1, Adenosine receptor A1 (Bos taurus, UniProt P28190); test: In vitro binding affinity for Adenosine A1 receptor of bovine cortex
T1 sequence (P28190 whole entry): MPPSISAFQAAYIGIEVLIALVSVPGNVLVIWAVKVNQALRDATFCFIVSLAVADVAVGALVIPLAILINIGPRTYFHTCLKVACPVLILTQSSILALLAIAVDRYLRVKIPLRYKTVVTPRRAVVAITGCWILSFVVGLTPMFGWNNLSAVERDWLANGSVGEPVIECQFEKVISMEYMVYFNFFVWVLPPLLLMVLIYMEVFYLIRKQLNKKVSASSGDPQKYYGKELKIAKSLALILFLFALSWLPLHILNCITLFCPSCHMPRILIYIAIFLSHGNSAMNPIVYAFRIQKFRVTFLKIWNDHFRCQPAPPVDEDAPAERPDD

Mus musculus [21] = test: In vivo biodistribution in NMRI (Naval Medical Research Institute) mice intestine at the dose of 0.15-0.2 nmol at 10 min; assay type: ADME, organism-based
Mus musculus [22] = test: In vivo biodistribution in NMRI (Naval Medical Research Institute) mice intestine at the dose of 0.15-0.2 nmol at 5 min; assay type: ADME, organism-based
Mus musculus [23] = test: In vivo biodistribution in NMRI (Naval Medical Research Institute) mice spleen at the dose of 0.15-0.2 nmol at 5 min; assay type: ADME, organism-based
Mus musculus [24] = test: In vivo biodistribution in NMRI (Naval Medical Research Institute) mice splee nat the dose of 0.15-0.2 nmol at 10 min; assay type: ADME, organism-based
Mus musculus [25] = test: In vivo biodistribution in NMRI (Naval Medical Research Institute) mice blood at the dose of 0.15-0.2 nmol at 40 min; assay type: ADME, organism-based
Mus musculus [26] = test: In vivo biodistribution in NMRI (Naval Medical Research Institute) mice heart at the dose of 0.15-0.2 nmol at 10 min; assay type: ADME, organism-based
Mus musculus [27] = test: In vivo biodistribution in NMRI (Naval Medical Research Institute) mice brain at the dose of 0.15-0.2 nmol at 5 min; assay type: ADME, organism-based
Mus musculus [28] = test: In vivo biodistribution in NMRI (Naval Medical Research Institute) mice intestine at the dose of 0.15-0.2 nmol at 20 min; assay type: ADME, organism-based
Mus musculus [29] = test: In vivo biodistribution in NMRI (Naval Medical Research Institute) mice lung at the dose of 0.15-0.2 nmol at 10 min; assay type: ADME, organism-based
Mus musculus [30] = test: In vivo biodistribution in NMRI (Naval Medical Research Institute) mice spleen at the dose of 0.15-0.2 nmol at 2 min; assay type: ADME, organism-based
Mus musculus [31] = test: In vivo biodistribution in NMRI (Naval Medical Research Institute) mice blood at the dose of 0.15-0.2 nmol at 10 min; assay type: ADME, organism-based

Adenosine receptor A2a, sequence (P30543 whole entry): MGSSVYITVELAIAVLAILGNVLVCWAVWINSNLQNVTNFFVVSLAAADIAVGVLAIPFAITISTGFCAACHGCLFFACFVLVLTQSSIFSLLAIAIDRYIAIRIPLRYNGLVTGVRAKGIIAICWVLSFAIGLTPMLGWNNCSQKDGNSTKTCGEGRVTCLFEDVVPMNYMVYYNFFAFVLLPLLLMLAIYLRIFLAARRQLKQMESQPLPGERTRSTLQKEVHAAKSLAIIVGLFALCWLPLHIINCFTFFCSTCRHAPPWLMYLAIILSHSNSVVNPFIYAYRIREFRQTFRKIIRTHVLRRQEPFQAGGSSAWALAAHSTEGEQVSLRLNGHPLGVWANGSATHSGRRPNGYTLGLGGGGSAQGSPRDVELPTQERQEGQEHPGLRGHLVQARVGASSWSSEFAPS

## CCCn1c(=O)c2nc(C3CCCC3)[nH]c2n(CCC[18F])c1=O
Mus musculus [1]
  ID/g: 9.61%
Mus musculus [2]
  ID/g: 2.39%
Mus musculus [3]
  ID/g: 9.93%
Mus musculus [4]
  ID/g: 2.63%
Mus musculus [5]
  ID/g: 1.71%
Mus musculus [6]
  ID/g: 8.64%
Mus musculus [7]
  ID/g: 3.58%
Mus musculus [8]
  ID/g: 4.36%
Mus musculus [9]
  ID/g: 3.81%
Mus musculus [10]
  ID/g: 9.34%
Mus musculus [11]
  ID/g: 6.05%
Mus musculus [12]
  ID/g: 5.75%
Mus musculus [13]
  ID/g: 1.79%
Mus musculus [14]
  ID/g: 1.55%
Mus musculus [15]
  ID/g: 0.84%
Mus musculus [16]
  ID/g: 1.4%
Adenosine receptor A2a
  pKi: 6.09
Mus musculus [17]
  ID/g: 2.18%
Mus musculus [18]
  ID/g: 2.07%
Mus musculus [19]
  ID/g: 0.37%
Mus musculus [20]
  ID/g: 3.74%
Adenosine receptor A1
  pKi: 9.74
Mus musculus [21]
  ID/g: 3.08%
Mus musculus [22]
  ID/g: 2.21%
Mus musculus [23]
  ID/g: 1.56%
Mus musculus [24]
  ID/g: 1.77%
Mus musculus [25]
  ID/g: 3.92%
Mus musculus [26]
  ID/g: 3.83%
Mus musculus [27]
  ID/g: 2.37%
Mus musculus [28]
  ID/g: 3.51%
Mus musculus [29]
  ID/g: 5.79%
Mus musculus [30]
  ID/g: 2.25%
Mus musculus [31]
  ID/g: 5.21%

Reference: ChEMBL document CHEMBL1135648, “Synthesis and evaluation of no-carrier-added 8-cyclopentyl-3-(3-[(18)F]fluoropropyl)-1-propylxanthine ([(18)F]CPFPX): a potent and selective A(1)-adenosine receptor antagonist for in vivo imaging” (J Med Chem, 2002)
